Laboratory results as given in patent publication EP4722206A1, “BENZO(HETERO)CYCLOALKYL COMPOUNDS FOR ANDROGEN RECEPTOR-DEPENDENT DISEASES” (Haihe Biopharma Co., Ltd., priority 2023, dated 2024).

Columns and labels:
Androgen receptor (AR) = biological target: T1, Androgen receptor (AR) (Homo sapiens, UniProt P10275); assay: Androgen receptor (AR) reporter gene assay (ARE Luc); type: cell-based; details: AR+ARE/Luc HEK293T cells, with 11-KDHT, 24h incubation, Bright-Lite luminescence
T1 construct: expressed in transfected cells; host or cells: AR+ARE/Luc HEK293T cells
T1 sequence (P10275 1-920): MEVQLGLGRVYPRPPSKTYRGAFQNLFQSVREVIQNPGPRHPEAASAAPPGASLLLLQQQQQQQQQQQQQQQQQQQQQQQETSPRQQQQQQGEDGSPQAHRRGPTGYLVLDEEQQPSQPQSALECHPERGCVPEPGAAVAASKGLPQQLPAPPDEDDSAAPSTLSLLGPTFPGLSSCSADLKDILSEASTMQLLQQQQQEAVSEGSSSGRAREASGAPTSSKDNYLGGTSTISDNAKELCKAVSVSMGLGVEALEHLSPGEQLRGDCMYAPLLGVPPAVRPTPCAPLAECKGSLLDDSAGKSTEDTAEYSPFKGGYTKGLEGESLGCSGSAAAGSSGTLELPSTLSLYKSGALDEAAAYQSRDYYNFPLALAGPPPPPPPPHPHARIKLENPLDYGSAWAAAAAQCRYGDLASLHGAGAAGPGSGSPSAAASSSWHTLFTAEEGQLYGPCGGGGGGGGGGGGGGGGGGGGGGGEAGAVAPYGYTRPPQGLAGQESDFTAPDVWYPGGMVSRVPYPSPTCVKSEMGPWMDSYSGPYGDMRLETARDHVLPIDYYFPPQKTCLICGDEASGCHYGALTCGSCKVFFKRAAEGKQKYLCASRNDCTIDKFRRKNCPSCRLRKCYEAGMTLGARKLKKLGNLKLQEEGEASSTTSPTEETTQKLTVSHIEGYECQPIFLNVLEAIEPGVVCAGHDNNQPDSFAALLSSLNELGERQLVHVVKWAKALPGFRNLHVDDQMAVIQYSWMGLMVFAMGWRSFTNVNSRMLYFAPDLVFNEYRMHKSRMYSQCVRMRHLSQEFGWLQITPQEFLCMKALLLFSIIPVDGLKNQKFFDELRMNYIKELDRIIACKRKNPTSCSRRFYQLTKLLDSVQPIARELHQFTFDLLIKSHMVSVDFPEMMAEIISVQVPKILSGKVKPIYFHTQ
Experimental: Experimental Methods: 1. The described compounds were dissolved in 100% DMSO at a final concentration of 10 mM. 100 nL each of 400X compound to be tested and 400X 11-KDHT (40 nM) represtively were added to a 384-well assay plate with Echo, followed by 20 µL of complete medium, and centrifuged at 1000 rpm for 1 min, and oscillated for 20-30 min at room temperature. 2. 20 µL of AR+ARE/Luc HEK293T cells (10,000 cells/well) were inoculated into the assay plate containing the compounds and 11-KDHT, and centrifuged at 1000 rpm for 1 min. The assay plate was incubated in a 37 °C CO2 incubator for 24h. 3. 40 µL of Bright-Lite assay reagent was transferred to each well of the assay plate, centrifuged at 1000 rpm for 1 min, and shaken for 2 min at room temperature protected from light. 4. Luminescence values (RLU) were measured using Envision. […] Table 1. AR inhibition of Representative Compounds

AR-V7 = biological target: T2, AR-V7 (Homo sapiens, UniProt P10275); assay: AR degradation experiment (AR-V7-HiBiT, Nano-Glo HiBiT Lytic Detection); type: cell-based; details: 22RV1 cells stably expressing AR-V7-HiBiT, 24 hr at 37 °C; concentration required for degradation 50% of the target protein
T2 construct: fusing HiBiT tag (PromegaTM) into the C-terminus of the AR-V7 genome of 22RV1 cells; host or cells: 22RV1 cells, CRISPR/Cas9 knock-in of HiBiT at the AR-V7 C-terminus
T2 sequence (P10275 1-644 isoform P10275-3): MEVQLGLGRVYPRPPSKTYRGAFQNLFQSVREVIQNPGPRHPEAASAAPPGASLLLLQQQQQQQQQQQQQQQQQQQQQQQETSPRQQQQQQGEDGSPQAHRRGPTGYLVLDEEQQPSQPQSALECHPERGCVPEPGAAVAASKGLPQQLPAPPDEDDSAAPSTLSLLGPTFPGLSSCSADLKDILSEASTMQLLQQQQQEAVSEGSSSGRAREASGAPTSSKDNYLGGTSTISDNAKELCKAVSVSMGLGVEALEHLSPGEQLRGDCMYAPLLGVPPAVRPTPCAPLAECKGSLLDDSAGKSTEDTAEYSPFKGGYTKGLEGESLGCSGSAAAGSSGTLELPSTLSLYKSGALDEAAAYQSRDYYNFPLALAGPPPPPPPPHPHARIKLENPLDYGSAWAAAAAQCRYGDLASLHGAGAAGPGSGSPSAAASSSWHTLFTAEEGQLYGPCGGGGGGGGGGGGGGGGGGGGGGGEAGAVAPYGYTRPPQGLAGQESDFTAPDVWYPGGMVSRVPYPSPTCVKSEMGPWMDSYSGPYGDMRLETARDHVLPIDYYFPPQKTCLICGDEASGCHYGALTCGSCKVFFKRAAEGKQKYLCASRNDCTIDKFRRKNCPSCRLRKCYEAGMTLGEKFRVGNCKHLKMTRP
Experimental: In this experiment, cells stably expressing AR-V7-HiBiT was constructed by fusing HiBiT tag (PromegaTM) into the C-terminus of the AR-V7 genome of 22RV1 cells (ATCC) using CRISPR/Cas9 technology. The concentration of test compounds started from 1000 nM, and diluted with DMSO by 3-fold gradient for 11 points. […]

SMILES	IC50 (Androgen receptor (AR))	DC50 (AR-V7)
CCOc1c(C#N)cc2c(c1Cl)CCCC2Nc1ccc(OCCCNc2ccc3c(c2)C(=O)N(C2CCC(=O)NC2=O)C3=O)nc1 (stereo not shown) [HANT-312, 4-chloro-8-(6-(3-((2-(2,6-dioxopiperidin-3-yl)-1,3-dioxoisoindolin-5-yl)amino)propoxy)pyridin-3-ylamino)-3-ethoxy-5,6,7,8-tetrahydronaphthalene-2-carbonitrile]	377 nM	
N#Cc1cc2c(c(Cl)c1OCCCl)CCCC2c1cnc(NCCCNc2ccc3c(c2)C(=O)N(C2CCC(=O)NC2=O)C3=O)nc1 (stereo not shown) [HANT-314]	490 nM	
N#Cc1cc2c(c(Cl)c1OCCCl)CCCC2c1cnc(NCCOCCOc2ccc3c(c2)C(=O)N(C2CCC(=O)NC2=O)C3=O)nc1 (stereo not shown) [HANT-315, 4-chloro-3-(2-chloroethoxy)-8-(2-(2-(2-(2,6-dioxopiperidin-3-yl)-1,3-dioxoisoindolin-5-yl)oxy)ethoxy-amino)pyrimidin-5-yl-5,6,7,8-tetrahydronaphthalene-2-carbonitrile]	30 nM	8.7 nM
N#Cc1cc2c(c(Cl)c1OCCCl)CCC[C@H]2c1cnc(NCCOCCOc2ccc3c(c2)C(=O)N(C2CCC(=O)NC2=O)C3=O)nc1 (stereo partly shown) [HANT-315-P1]	2 nM	4.3 nM
N#Cc1cc2c(c(Cl)c1OCCCl)CCC[C@@H]2c1cnc(NCCOCCOc2ccc3c(c2)C(=O)N(C2CCC(=O)NC2=O)C3=O)nc1 (stereo partly shown) [HANT-315-P2]	3870 nM	
N#Cc1cc2c(c(Cl)c1OCCCl)CCCC2Nc1ccc(OCOCNc2ccc3c(c2)C(=O)N(C2CCC(=O)NC2=O)C3=O)nc1 (stereo not shown) [HANT-328]	1830 nM	
N#Cc1cc2c(c(Cl)c1OCCCl)CCCC2Nc1ccc(OCNc2ccc3c(c2)C(=O)N(C2CCC(=O)NC2=O)C3=O)nc1 (stereo not shown) [HANT-329]	123 nM	
N#Cc1cc2c(c(Cl)c1OCCCl)CCCC2Nc1ccc(OCCCCNc2ccc3c(c2)C(=O)N(C2CCC(=O)NC2=O)C3=O)nc1 (stereo not shown) [HANT-331, 4-chloro-3-(2-chloroethoxy)-8-((6-(4-(2-(2,6-dioxopiperidin-3-yl)-1,3-dioxoisoindolin-5-yl)amino)butoxy)pyridin-3-amino)-5,6,7,8-tetrahydronaphthalene-2-carbonitrile]	822 nM	> 10000 nM
N#Cc1cc2c(c(Cl)c1OCCCl)CCCC2c1ccc(OCCCCOc2ccc3c(c2)C(=O)N(C2CCC(=O)NC2=O)C3=O)nc1 (stereo not shown) [HANT-338]	657 nM	> 10000 nM
N#Cc1cc2c(c(Cl)c1OCCCl)CCCC2c1ccc(OCCCNc2ccc3c(c2)C(=O)N(C2CCC(=O)NC2=O)C3=O)nc1 (stereo not shown) [HANT-339]	569 nM	
N#Cc1cc2c(c(Cl)c1OCCCl)CCCC2c1cnc(N2CCC(OCCOc3ccc4c(c3)C(=O)N(C3CCC(=O)NC3=O)C4=O)CC2)nc1 (stereo not shown) [HANT-342]	27 nM	40 nM
N#Cc1cc2c(c(Cl)c1OCCCl)CCCC2c1ccc(NCCOCCOc2ccc3c(c2)C(=O)N(C2CCC(=O)NC2=O)C3=O)nc1 (stereo not shown) [HANT-346]	29 nM	24 nM
CCOc1c(C#N)cc2c(c1Cl)CCCC2c1cnc(NCCOCCOc2ccc3c(c2)C(=O)N(C2CCC(=O)NC2=O)C3=O)nc1 (stereo not shown) [HANT-354]	21 nM	13 nM
N#Cc1cc2c(c(Cl)c1OCCCl)CCCC2Nc1ccc(OCOCNc2cccc3c2C(=O)N(C2CCC(=O)NC2=O)C3=O)nc1 (stereo not shown) [HANT-362]	913 nM	
N#Cc1cc2c(c(Cl)c1OCCCl)CCCC2c1cnc(N2CCC(OCCCOc3ccc4c(c3)C(=O)N(C3CCC(=O)NC3=O)C4=O)CC2)nc1 (stereo not shown) [HANT-371, 4-chloro-3-(2-chloroethoxy)-8-(2-(4-(3-((2-(2,6-dioxopiperidin-3-yl)-1,3-dioxoisoindol-5-yl)oxy)propoxy)piperidin-1-yl)pyrimidin-5-yl)-5,6,7,8-tetrahydronaphthalene-2-carbonitrile]	292 nM	284 nM
N#Cc1cc2c(c(Cl)c1OCCCl)CCCC2c1cnc(N2CCC(OC3CN(c4ccc5c(c4)C(=O)N(C4CCC(=O)NC4=O)C5=O)C3)CC2)nc1 (stereo not shown) [HANT-390]	476 nM	
N#Cc1cc2c(c(Cl)c1OCCCl)CCCC2c1cnc(N2CCC(OCCNc3ccc4c(c3)C(=O)N(C3CCC(=O)NC3=O)C4=O)C2)nc1 (stereo not shown) [HANT-393]	428 nM	
CCOc1c(C#N)cc2c(c1Cl)CCCC2c1cnc(NCCOC2CN(c3ccc4c(c3)C(=O)N(C3CCC(=O)NC3=O)C4=O)C2)nc1 (stereo not shown) [HANT-431, 4-chloro-8-(2-((2-(2-(1-(2-(2,6-dioxopiperidin-3-yl)-1,3-dioxoisoindol-5-yl)azetidin-3-yl)oxy)ethyl)amino)pyrimidin-5-yl)-3-ethoxy-5,6,7,8-tetrahydronaphthalene-2-carbonitrile]	744 nM	
N#Cc1cc2c(c(Cl)c1OCCCl)CCCC2c1ccc(N2CCC(OCCCOc3ccc4c(c3)C(=O)N(C3CCC(=O)NC3=O)C4=O)CC2)nc1 (stereo not shown) [HANT-512]	318 nM	
N#Cc1cc2c(c(Cl)c1OCCCl)CCCC2c1ccc(N2CC(OCCOc3ccc4c(c3)C(=O)N(C3CCC(=O)NC3=O)C4=O)C2)nc1 (stereo not shown) [HANT-513]	7.6 nM	
N#Cc1cc2c(c(Cl)c1OCCCl)CCCC2c1ccc(N2CCC(OCCOc3ccc4c(c3)C(=O)N(C3CCC(=O)NC3=O)C4=O)CC2)nc1 (stereo not shown) [HANT-514]	73 nM	
N#Cc1cc2c(c(Cl)c1OCCCl)CCCC2c1cnc2c(cnn2CCOCCOc2ccc3c(c2)C(=O)N(C2CCC(=O)NC2=O)C3=O)c1 (stereo not shown) [HANT-515]	754 nM	
N#Cc1cc(C2CCCc3c2cc(C#N)c(OCCCl)c3Cl)cnc1N1CC(OCCOc2ccc3c(c2)C(=O)N(C2CCC(=O)NC2=O)C3=O)C1 (stereo not shown) [HANT-516]	32 nM	
N#Cc1cc2c(c(Cl)c1OCCCl)CCCC2c1ccc(OC2CCC(Oc3ccc4c(c3)C(=O)N(C3CCC(=O)NC3=O)C4=O)CC2)nc1 (stereo not shown) [HANT-517]	575 nM	
N#Cc1cc2c(c(Cl)c1OCCCl)CCCC2c1ccc(OC2CCC(OCCOc3ccc4c(c3)C(=O)N(C3CCC(=O)NC3=O)C4=O)CC2)nc1 (stereo not shown) [HANT-518]	209 nM	
N#Cc1cc2c(c(Cl)c1OCCCl)CCCC2c1cnc(N2CC(OCCOc3ccc4c(c3)C(=O)N(C3CCC(=O)NC3=O)C4=O)C2)nc1 (stereo not shown) [HANT-519]	23 nM	
